The target of one data set is CDK4/CycD3 (Homo sapiens, UniProt P11802). Description: Enzymatic inhibitory activity in vitro, CDK4 (Caliper mobility shift, FAM-labeled peptide). In kind it is biochemical. The text has this: (§1) The materials are used in the following assay:
(§2) HEPES: 4-(2-Hydroxyethyl)piperazine-1-ethanesulfonic acid; Brij-35: Polyethylene Glycol Monoisotridecyl Ether; DTT: Dithiothreitol; EDTA: Ethylene Diamine Tetraacetic Acid; CDK4/CycD3: Cyclin dependent kinase 4; CDK6/CycD3: Cyclin dependent kinase 6; Peptide FAM-P22: fluorescein-labeled peptide 22; ATP: adenosine triphosphate; DMSO: dimethyl sulfoxide; Staurosporine; Coating Reagent #3;
(§3) 1. Preparation of 1× Kinase Base Buffer and Stop Buffer:
(§4) (1) 1× Kinase buffer without MnCl2 (50 mM HEPES, pH 7.5, 0.0015% Brij-35, 10 mM MgCl2, 2 mM DTT); (2) Stop buffer (100 mM HEPES, pH 7.5, 0.015% Brij-35, 0.2% Coating Reagent #3, 50 mM EDTA).
(§5) (1) The compound was diluted to 50× of the final desired highest inhibitor concentration in reaction by 100% DMSO. Transferring 100 μL of this compound dilution to a well in a 96-well plate. (2) The compound was diluted by transferring 20 μL of the compound dilution to 60 μL of 100% DMSO in the next well and so forth for a total of 10 concentrations. (3) 100 μL of 100% DMSO was added to two empty wells for no compound control and no enzyme control. (4) Intermediate plate was prepared by transferring 10 μL of compound from source plate to a new 96-well plate and adding 90 μL of 1× kinase buffer to each well of the intermediate plate. The compounds in intermediate plate were mixed for 10 min on shaker. (5) Assay plate was prepared by transferring 5 μL of each well from the 96-well intermediate plate to a 384-well plate in duplicates.
(§6) (1) 2.5× Enzyme solution was prepared by adding kinase in 1× kinase base buffer. (2) 2.5× Peptide solution was prepared by adding FAM-labeled peptide and ATP in the 1× kinase base buffer. (3) 2.5× Enzyme solution was transferred to the assay plate contained 5 μL of compound in 10% DMSO, which was incubated at room temperature for 10 min. (4) 10 μL of 2.5× […] solution was added to each well of the 384-well assay plate. (5) Kinase reaction and stopping, after incubating at 28° C. for specified period of time, 25 μL of stop buffer was added to stop reaction.
(§7) 4. Caliper Reading, Collect Data on Caliper.
(§8) (1) Copying conversion data from Caliper program; (2) Converting conversion values to inhibition values: Percent inhibition=(max−conversion)/(max−min)*100; “max” means the value of control without compound; “min” means the value of control without enzyme; (3) Fitting the data in XLfit to obtain IC50 values.

The next data set addresses CDK6/CycD3 (Homo sapiens, UniProt Q00534). The data set is described as follows: Enzymatic inhibitory activity in vitro, CDK6 (Caliper mobility shift, FAM-labeled peptide). The data set is classed as biochemical.
Text: as §1, §2, §3, §4, §5, §6, §7, §8

A short description of data set [1]: Pharmacokinetics in rats (iv and oral, plasma LC-MS/MS). The data set is classed as in vivo, male SD rats. Conditions: rat. The source says: The assay agents and samples are as shown below:
Propranolol: Propranolol (internal standard); MTBE: Methyl Tertiary Butyl Ether; Cremophor EL: polyoxyethylated castor oil; KolliphorHS 15: polyethylene glycol 12-hydroxystearate; DMSO: dimethylsulfoxide; PEG400: polyethylene glycol 400; 18 male SD rats.
Each test compound prepared was completely dissolved in a mixture of 5% DMSO+10% KolliphorHS 15+35% Saline or 5% DMSO+60% PEG400+35% Saline according solubility property thereof.
Grouping male SD rats weighing 190-250 g randomly to two groups; one group was administered with test compound at a dose of 1.0 mg/kg by intravenous injection, the other group was administered with test compound at a dose of 5.0 mg/kg by oral. After administering, blood samples of intravenous injection group were collected at time points of 0.0833, 0.25, 0.5, 1, 2, 5, 7 and 24 h from caudal vein; blood samples of oral group were collected at time points of 0.25, 0.5, 1, 2, 5, 7 and 24 h from caudal vein. Standard curve was plotted based on concentrations of the samples in a suitable range, the concentrations of test compounds in plasma samples were determined by using LC-MS/MS. Pharmacokinetic parameters were calculated according to drug concentration-time curve using a noncompartmental method by WinNonLin 6.3 software.

Where two headings read alike, the source gives them in different places.

Consider eleven compounds from patent publication US9828373B2, “2-amino-pyrido[2,3-D]pyrimidin-7(8H)-one derivatives as CDK inhibitors and uses thereof” (SUNSHINE LAKE PHARMA CO., LTD., priority 2014, dated 2017).

Chain of CDK6/CycD3 (Q00534 whole entry, species assumed): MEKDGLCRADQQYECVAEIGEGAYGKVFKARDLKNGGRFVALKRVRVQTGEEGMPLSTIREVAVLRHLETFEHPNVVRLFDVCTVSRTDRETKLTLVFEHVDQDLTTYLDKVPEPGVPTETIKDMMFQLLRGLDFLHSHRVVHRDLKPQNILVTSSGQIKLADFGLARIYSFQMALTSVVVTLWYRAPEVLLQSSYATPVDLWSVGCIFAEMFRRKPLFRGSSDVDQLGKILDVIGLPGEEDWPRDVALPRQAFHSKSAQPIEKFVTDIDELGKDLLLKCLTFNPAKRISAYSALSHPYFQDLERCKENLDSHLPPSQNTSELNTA
Chain of CDK6/CycD3 (P30281 whole entry partner, species assumed): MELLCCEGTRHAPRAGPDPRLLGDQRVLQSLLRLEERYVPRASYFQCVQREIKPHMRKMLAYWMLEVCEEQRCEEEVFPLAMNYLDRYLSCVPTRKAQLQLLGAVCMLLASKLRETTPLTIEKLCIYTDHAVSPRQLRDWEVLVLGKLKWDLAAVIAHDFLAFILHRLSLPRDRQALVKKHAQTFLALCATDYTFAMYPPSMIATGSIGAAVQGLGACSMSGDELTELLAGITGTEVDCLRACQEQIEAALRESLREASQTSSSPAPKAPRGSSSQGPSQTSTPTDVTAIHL
Chain of CDK4/CycD3 (P11802 whole entry, species assumed): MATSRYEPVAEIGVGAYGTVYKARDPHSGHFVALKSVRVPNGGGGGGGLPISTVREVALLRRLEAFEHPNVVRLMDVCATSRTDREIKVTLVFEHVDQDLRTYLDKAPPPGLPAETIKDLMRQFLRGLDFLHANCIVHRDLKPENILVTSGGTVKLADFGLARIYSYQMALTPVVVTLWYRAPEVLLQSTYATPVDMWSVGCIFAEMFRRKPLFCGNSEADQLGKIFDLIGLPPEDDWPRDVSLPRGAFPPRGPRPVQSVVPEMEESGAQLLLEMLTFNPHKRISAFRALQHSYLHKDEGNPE
Chain of CDK4/CycD3 (P30281 whole entry partner, species assumed): as the sequence (P30281 whole entry partner, species assumed) above

As usually defined, the IC50 is the concentration that gives 50% inhibition. `CC(=O)c1c(C)c2cnc(Nc3ccc4c(n3)CCN(C(C)=O)C4)nc2n(C2CCCC2)c1=O` [Example 6, 6-Acetyl-2-((6-acetyl-5,6,7,8-tetrahydro-1,6-naphthyridin-2-yl)amino)-8-cyclopentyl-5-methylpyrido[2,3-d]pyrimidin-7(8H)-one]: the IC50 at CDK4/CycD3 stood at 20 nM; at CDK6/CycD3 it was 65 nM.
On the same counts, the results for `CC(=O)c1c(C)c2cnc(Nc3ccc4c(n3)CCN(C3CCNCC3)C4)nc2n(C2CCCC2)c1=O` [Example 39] are 14 nM and 51 nM.
Taken in the same sequence, the figures for `CC(=O)c1c(C)c2cnc(Nc3ncnc4c(C5=CCNCC5)csc34)nc2n(C2CCCC2)c1=O` [Example 2, 6-Acetyl-8-cyclopentyl-5-methyl-2-((7-(1,2,3,6-tetrahydropyridin-4-yl)thieno[3,2-d]pyrimidin-4-yl)amino)pyrido[2,3-d]pyrimidin-7(8H)-one] were 2390 nM and 4810 nM.
On the same counts, the results for `CC(=O)c1c(C)c2cnc(Nc3ccc4c(n3)CCN(C3CCN(C)CC3)C4)nc2n(C2CCCC2)c1=O` [Example 40, 6-Acetyl-8-cyclopentyl-5-methyl-2-((6-(1-methylpiperidin-4-yl)-5,6,7,8-tetrahydro-1,6-naphthyridin-2-yl)amino)pyrido[2,3-d]pyrimidin-7(8H)-one] are 7.2 nM and 25 nM.
As to `CCN1CCc2nc(Nc3ncc4c(C)c(C(C)=O)c(=O)n(C5CCCC5)c4n3)ccc2C1` [Example 7, 6-Acetyl-2-((6-ethyl-5,6,7,8-tetrahydro-1,6-naphthyridin-2-yl)amino)-8-cyclopentyl-5-methylpyrido[2,3-d]pyrimidin-7(8H)-one], the IC50 on CDK4/CycD3 turned out to be 19 nM; at CDK6/CycD3, 83 nM.
On the same counts, the results for `CC(=O)c1c(C)c2cnc(Nc3ccc4c(n3)CCN(CCC(F)(F)F)C4)nc2n(C2CCCC2)c1=O` [Example 5, 6-Acetyl-8-cyclopentyl-5-methyl-2-((6-(3,3,3-trifluoropropyl)-5,6,7,8-tetrahydro-1,6-naphthyridin-2-yl)amino)pyrido[2,3-d]pyrimidin-7(8H)-one] are 25 nM and 1060 nM.
On the same counts, the results for `CC(=O)c1c(C)c2cnc(Nc3ccc4c(n3)CCN(C3COC3)C4)nc2n(C2CCCC2)c1=O` [Example 41, 6-Acetyl-8-cyclopentyl-5-methyl-2-((6-(oxetan-3-yl)-5,6,7,8-tetrahydro-1,6-naphthyridin-2-yl)amino)pyrido[2,3-d]pyrimidin-7(8H)-one] are 18 nM and 59 nM.
Taken in the same sequence, the figures for `CC(=O)c1c(C)c2cnc(Nc3ccc4c(ccn4C4CCNCC4)c3)nc2n(C2CCCC2)c1=O` [Example 1, 6-Acetyl-8-cyclopentyl-5-methyl-2-((1-(piperidin-4-yl)-1H-indol-5-yl)amino)pyrido[2,3-d]pyrimidin-7(8H)-one] were 6.8 nM and 29.2 nM.
Consider `CC(=O)c1c(C)c2cnc(Nc3ccc4c(n3)CCN(C(=O)CO)C4)nc2n(C2CCCC2)c1=O` [Example 4, 6-Acetyl-8-cyclopentyl-2-((6-(2-hydroxyacetyl)-5,6,7,8-tetrahydro-1,6-naphthyridin-2-yl)amino)-5-methylpyrido[2,3-d]pyrimidin-7(8H)-one], for which the values for the IC50 at CDK4/CycD3 and on CDK6/CycD3 were 17 nM and 62 nM, respectively.
One may read the Cmax as the peak of the concentration-time curve. As a reminder, the Tmax is the time from dosing to the highest level. Consider `CC(=O)c1c(C)c2cnc(Nc3ccc(N4CCNCC4)cn3)nc2n(C2CCCC2)c1=O` [Palbociclib, reference compound], for which the AUC(0-inf) in data set [1] (plasma, male SD rats, iv, 1.0 mg/kg, read-out: AUCINF) was found to be 0.332 µg·h/mL; in data set [1] (plasma, male SD rats, po, 5.0 mg/kg, read-out: AUCINF), 1.4 µg·h/mL. In addition, the AUC(0-t) came out at 0.294 µg·h/mL in data set [1] (plasma, male SD rats, iv, 1.0 mg/kg, read-out: AUClast) and 1.28 µg·h/mL in data set [1] (plasma, male SD rats, po, 5.0 mg/kg, read-out: AUClast). The Cmax amounted to 0.143 µg/mL in data set [1] (plasma, male SD rats, iv, 1.0 mg/kg, read-out: Cmax) and 0.156 µg/mL in data set [1] (plasma, male SD rats, po, 5.0 mg/kg, read-out: Cmax). Further, the half-life in data set [1] (plasma, male SD rats, iv, 1.0 mg/kg, read-out: T1/2 (converted)) was 2.72 h; in data set [1] (plasma, male SD rats, po, 5.0 mg/kg, read-out: T1/2 (converted)), 4.28 h. The Tmax in data set [1] (plasma, male SD rats, iv, 1.0 mg/kg, read-out: Tmax) came out at 0.083 h; in data set [1] (plasma, male SD rats, po, 5.0 mg/kg, read-out: Tmax), 2.67 h. Besides, in data set [1] (plasma, male SD rats, po 5.0 mg/kg versus iv 1.0 mg/kg, read-out: F (%)), the bioavailability is 79.9%.
As for `CC(=O)c1c(C)c2cnc(Nc3ccc4c(n3)CCNC4)nc2n(C2CCCC2)c1=O` [Example 3, 6-Acetyl-8-cyclopentyl-5-methyl-2-((5,6,7,8-tetrahydro-1,6-naphthyridin-2-yl)amino)pyrido[2,3-d]pyrimidin-7(8H)-one], the IC50 on CDK4/CycD3 was determined as 5.7 nM. Moreover, the 50% inhibitory concentration (IC50) at CDK6/CycD3 is 47 nM. Besides, in data set [1] (male, SD, in vivo), the bioavailability came to 101%. In data set [1] (male, SD, in vivo, iv, 1 mg/kg), the AUC(0-inf) turned out to be 0.587 µg·h/mL, the AUC(0-t) was 0.485 µg·h/mL, the Cmax turned out to be 0.141 µg/mL and the Tmax amounted to 0.42 h. Further, the half-life in data set [1] (male, SD, in vivo, iv, 1 mg/kg) was 2.93 h. In addition, in data set [1] (male, SD, in vivo, po, 5 mg/kg), the AUC(0-inf) turned out to be 2.97 µg·h/mL, the AUC(0-t) worked out at 2.93 µg·h/mL, the highest level (Cmax) was 0.293 µg/mL and the Tmax was 4 h. Moreover, in data set [1] (male, SD, in vivo, po, 5 mg/kg), the half-life was 3.91 h.
